# From US11180452B2, “Methods and compositions for selectively inhibiting pathogenic microbes” (priority 2019, dated 2021)
# “And” between values parts separate entries of the source, which are not always exact repeats. Equal entries are not always repeated. Where two headings read alike, the source gives them in different places.
# How the values were obtained:
# [1] = test system: Bacillus subtilis; experiment: Bacillus subtilis MIC / MBC; assay type: cell-based; details: for MIC: Bacillus subtilis (Ehrenberg 1835) Cohn 1872 NRRL: B-571, read-out: MIC; for MBC: Bacillus subtilis NRRL: B-571, minimum bactericidal concentration
# [2] = test system: Candida glabrata; experiment: Candida glabrata MIC / MFC; assay type: cell-based; details: Nakaseomyces glabratus, Candida glabrata #584 (Table 2); for MIC: read-out: MIC; for MFC: minimum fungicidal concentration, read-out: MFC
# [3] = test system: Francisella tularensis subsp. Holarctica Strain LVSR NR-597; experiment: microbe, parasite or virus in culture; assay type: cell-based
# [4] = test system: Burkholderia thailandensis Brett et al ATCC: 700388; experiment: microbe, parasite or virus in culture; assay type: cell-based
# [5] = test system: Bacillus thuringiensis; assay type: cell-based; details: Bacillus thuringiensis Berliner ATCC: 10792; for MIC: Bacillus thuringiensis, read-out: MIC
# [6] = test system: Francisella tularensis strains; experiment: microbe, parasite or virus in culture; assay type: cell-based
# [7] = Toxicity in mice, body weight over 7 days; assay type: in vivo, Balb/c mice; details: for Animal body weight (kg) Day 0 / Animal body weight (kg) Day 1 / Animal body weight (kg) Day 2 / Animal body weight (kg) Day 3 / Animal body weight (kg) Day 4 / Animal body weight (kg) Day 5 / Animal body weight (kg) Day 6 / Animal body weight (kg) Day 7: mice, IP; for Animal body weight (kg) Day 0: Day 0, individual animals; for Animal body weight (kg) Day 1: Day 1, individual animals; for Animal body weight (kg) Day 2: Day 2, individual animals; for Animal body weight (kg) Day 3: Day 3, individual animals; for Animal body weight (kg) Day 4: Day 4, individual animals; for Animal body weight (kg) Day 5: Day 5, individual animals; for Animal body weight (kg) Day 6: Day 6, individual animals; for Animal body weight (kg) Day 7: Day 7, individual animals
# Text: The vehicle is 40% PEG300 solution in 0.9% NaCl. […] Thus, the compounds are useful for in vivo antimicrobial administration.
# [8] = read-out: F. tularensis BSL-3 MIC, Strain 100
# [9] = read-out: F. tularensis BSL-3 MIC, strain HN-63
# [10] = read-out: F. tularensis BSL-3 MIC, strain LVS
# [11] = read-out: F. tularensis BSL-3 MIC, strain MA00-2987
# [12] = read-out: F. tularensis BSL-3 MIC, strain MO #1
# [13] = read-out: F. tularensis BSL-3 MIC, strain MO #2
# [14] = read-out: F. tularensis BSL-3 MIC, strain MO #3
# [15] = read-out: F. tularensis BSL-3 MIC, strain OR-96
# [16] = read-out: F. tularensis BSL-3 MIC, strain SCHU S4
# [17] = read-out: F. tularensis BSL-3 MIC, strain WY-96
# [18] = read-out: MAX, highest MIC over the Francisella tularensis strains
# [19] = read-out: MIN, lowest MIC over the Francisella tularensis strains
smiles,measurement,setting,value
"Cc1[nH]c2ccc(O)cc2c1Sc1ccccc1O [Compound 174AO, 3-((2-hydroxyphenyl)thio)-2-methyl-1H-indol-5-ol]",MIC,[1]; Bacillus subtilis,50 µg/mL
same,MIC,[2],> 50 µg/mL
same,MIC,[3],50 µg/mL
"Cc1[nH]c2ccccc2c1Sc1ccc(Br)cc1 [Compound 172C, 3-((4-bromophenyl)thio)-2-methyl-1H-indole]",MIC,[4],> 50 µg/mL
"Brc1ccc2[nH]cc(Sc3cc(Br)c(Br)c(Br)c3)c2c1 [Compound 174AH, 5-bromo-3-((3,4,5-tribromophenyl)thio)-1H-indole]",MBC,[1],> 50 µg/mL
same,MIC,[1]; Bacillus subtilis,8 µg/mL
same,MBC,[5],> 50 µg/mL
same,MIC,[5],8 µg/mL
same,MIC,[4],> 50 µg/mL
same,MIC,[2],> 50 µg/mL
"COc1ccc2[nH]cc(Sc3ccccc3O)c2c1 [Compound 174AQ, 2-((5-methoxy-1H-indol-3-yl)thio)phenol]",MIC,[1]; Bacillus subtilis,32 µg/mL
same,MIC,[2],50 µg/mL
same,MIC,[3],16 µg/mL
"Brc1ccc(Sc2c[nH]c3c(Br)cc(Br)cc23)cc1 [Compound 174AC, 5,7-dibromo-3-((4-bromophenyl)thio)-1H-indole]",MBC,[1],16 µg/mL
same,MIC,[1]; Bacillus subtilis,8 µg/mL
same,MBC,[5],50 µg/mL
same,MIC,[5],8 µg/mL
same,MIC,[4],> 50 µg/mL
same,MIC,[2],25 µg/mL
"Fc1ccccc1Sc1c[nH]c2ccc(Br)cc12 [Compound 174AU, 5-bromo-3-((2-fluorophenyl)thio)-1H-indole]",MBC,[1],2 µg/mL
same,MIC,[1]; Bacillus subtilis,1 µg/mL
same,MBC,[5],2 µg/mL
same,MIC,[5],1 µg/mL
same,MFC,[2],50 µg/mL
same,MIC,[2],3.13 µg/mL
same,MIC,[3],0.25 µg/mL
same,MIC50,[6],2 µg/mL
same,MIC,[6]; [8],8 µg/mL
same,MIC,[6]; [9],2 µg/mL
same,MIC,[6]; [10],2 µg/mL
same,MIC,[6]; [11],2 µg/mL
same,MIC,[6]; [12],1.83 µg/mL
same,MIC,[6]; [13],1.67 µg/mL
same,MIC,[6]; [14],2 µg/mL
same,MIC,[6]; [15],4 µg/mL
same,MIC,[6]; [16],4 µg/mL
same,MIC,[6]; [17],1.5 µg/mL
same,MIC,[6]; [18],8 µg/mL
same,MIC,[6]; [19],1.5 µg/mL
same,toxicity in mice by body weight,"[7]; 6-week-old Balb/c mice, body weight over 7 days, vehicle 40% PEG300 in 0.9% NaCl",did not have significant toxicity
same,Animal body weight (kg) Day 0,"[7]; 0.1 mg/kg, 0.1 mg/kg",0.026 kg and 0.023 kg and 0.024 kg
same,Animal body weight (kg) Day 1,"[7]; 0.1 mg/kg, 0.1 mg/kg",0.024 kg and 0.022 kg and 0.023 kg
same,Animal body weight (kg) Day 2,"[7]; 0.1 mg/kg, 0.1 mg/kg",0.025 kg and 0.022 kg and 0.023 kg
same,Animal body weight (kg) Day 3,"[7]; 0.1 mg/kg, 0.1 mg/kg",0.025 kg and 0.022 kg and 0.023 kg
same,Animal body weight (kg) Day 4,"[7]; 0.1 mg/kg, 0.1 mg/kg",0.025 kg and 0.022 kg and 0.023 kg
same,Animal body weight (kg) Day 5,"[7]; 0.1 mg/kg, 0.1 mg/kg",0.025 kg and 0.023 kg and 0.024 kg
same,Animal body weight (kg) Day 6,"[7]; 0.1 mg/kg, 0.1 mg/kg",0.025 kg and 0.022 kg and 0.023 kg
same,Animal body weight (kg) Day 7,"[7]; 0.1 mg/kg, 0.1 mg/kg",0.024 kg and 0.022 kg and 0.023 kg
same,Animal body weight (kg) Day 0,"[7]; 1 mg/kg, 1 mg/kg",0.026 kg and 0.022 kg and 0.025 kg
same,Animal body weight (kg) Day 1,"[7]; 1 mg/kg, 1 mg/kg",0.025 kg (2×) and 0.022 kg
same,Animal body weight (kg) Day 2,"[7]; 1 mg/kg, 1 mg/kg",0.026 kg and 0.022 kg and 0.025 kg
same,Animal body weight (kg) Day 3,"[7]; 1 mg/kg, 1 mg/kg",0.026 kg and 0.022 kg and 0.025 kg
same,Animal body weight (kg) Day 4,"[7]; 1 mg/kg, 1 mg/kg",0.026 kg and 0.023 kg and 0.025 kg
same,Animal body weight (kg) Day 5,"[7]; 1 mg/kg, 1 mg/kg",0.026 kg and 0.023 kg and 0.025 kg
same,Animal body weight (kg) Day 6,"[7]; 1 mg/kg, 1 mg/kg",0.025 kg (2×) and 0.023 kg
same,Animal body weight (kg) Day 7,"[7]; 1 mg/kg, 1 mg/kg",0.026 kg and 0.024 kg and 0.025 kg
same,Animal body weight (kg) Day 0,"[7]; 10 mg/kg, 10 mg/kg",0.024 kg (2×) and 0.025 kg
same,Animal body weight (kg) Day 1,"[7]; 10 mg/kg, 10 mg/kg",0.023 kg (2×) and 0.024 kg
same,Animal body weight (kg) Day 2,"[7]; 10 mg/kg, 10 mg/kg",0.023 kg (2×) and 0.025 kg
same,Animal body weight (kg) Day 3,"[7]; 10 mg/kg, 10 mg/kg",0.024 kg and 0.023 kg and 0.025 kg
same,Animal body weight (kg) Day 4,"[7]; 10 mg/kg, 10 mg/kg",0.023 kg (2×) and 0.025 kg
same,Animal body weight (kg) Day 5,"[7]; 10 mg/kg, 10 mg/kg",0.023 kg (2×) and 0.026 kg
same,Animal body weight (kg) Day 6,"[7]; 10 mg/kg, 10 mg/kg",0.022 kg and 0.023 kg and 0.026 kg
same,Animal body weight (kg) Day 7,"[7]; 10 mg/kg, 10 mg/kg",0.022 kg and 0.023 kg and 0.026 kg
"Brc1ccc2[nH]cc(Sc3ccccc3)c2c1 [Compound 174AA, 5-bromo-3-(phenylthio)-1H-indole]",MBC,[1],16 µg/mL
same,MIC,[1]; Bacillus subtilis,4 µg/mL
same,MBC,[5],16 µg/mL
same,MIC,[5],8 µg/mL
same,MIC,[4],> 50 µg/mL
same,MFC,[2],6.25 µg/mL
same,MIC,[2],3.13 µg/mL
same,MIC,[3],4 µg/mL
"Oc1ccc2[nH]cc(Sc3ccccc3O)c2c1 [Compound 174AP, 3-((2-hydroxyphenyl)thio)-1H-indol-5-ol]",MIC,[1]; Bacillus subtilis,50 µg/mL
same,MIC,[2],> 50 µg/mL
same,MIC,[3],50 µg/mL
"Brc1ccc(Sc2cnc3ccccn23)cc1 [Compound 174AN, 3-((4-bromophenyl)thio)imidazo[1,2-a]pyridine]",MIC,[1]; Bacillus subtilis,16 µg/mL
same,MIC,[2],50 µg/mL
"Brc1ccc(Sc2c[nH]c3cc(Br)ccc23)cc1 [Compound 174A, 6-bromo-3-((4-bromophenyl)thio)-1H-indole]",MBC,[1],6.25 µg/mL
same,MIC,[1]; Bacillus subtilis,3.13 µg/mL
same,MBC,[5],3.13 µg/mL
same,MIC,[5],3.13 µg/mL
same,MIC,[4],> 50 µg/mL
same,MIC,[2],12.5 µg/mL
same,MIC,[3],1.56 µg/mL
"Clc1ccccc1Sc1c[nH]c2ccc(Br)cc12 [Compound 174AJ, 5-bromo-3-((2-chlorophenyl)thio)-1H-indole]",MBC,[1],3.13 µg/mL
same,MIC,[1]; Bacillus subtilis,0.78 µg/mL
same,MBC,[5],1.56 µg/mL
same,MIC,[5],0.78 µg/mL
same,MIC,[4],> 50 µg/mL
same,MFC,[2],25 µg/mL
same,MIC,[2],6.25 µg/mL
"Clc1c(Cl)c(Cl)c(Sc2c[nH]c3ccc(Br)cc23)c(Cl)c1Cl [Compound 174AD, 5-bromo-3-((perchlorophenyl)thio)-1H-indole]",MIC,[1],16 µg/mL
same,MBC,[1],50 µg/mL
same,MBC,[5],> 50 µg/mL
same,MIC,[5],32 µg/mL
same,MIC,[4],> 50 µg/mL
"OCc1ccccc1Sc1c[nH]c2ccc(Br)cc12 [Compound 174AT, (2-((5-bromo-1H-indol-3-yl)thio)phenyl)methanol]",MBC,[1],16 µg/mL
same,MIC,[1]; Bacillus subtilis,8 µg/mL
same,MBC,[5],16 µg/mL
same,MIC,[5],8 µg/mL
same,MIC,[2],50 µg/mL
same,MIC,[3],8 µg/mL
"COc1ccc2[nH]cc(Sc3ccccc3Br)c2c1 [Compound 174AS, 3-((2-bromophenyl)thio)-5-methoxy-1H-indole]",MIC,[1]; Bacillus subtilis,2 µg/mL
same,MIC,[2],> 50 µg/mL
same,MIC,[3],1 µg/mL
"Cc1[nH]c2ccc(O)cc2c1Sc1ccccc1N [Compound 174AK, 3-((2-aminophenyl)thio)-2-methyl-1H-indol-5-ol]",MBC,[1],> 50 µg/mL
same,MIC,[1]; Bacillus subtilis,50 µg/mL
same,MIC,[5],> 50 µg/mL
same,MIC,[4],> 50 µg/mL
same,MIC,[2],> 50 µg/mL
"Cc1ccccc1Sc1c[nH]c2ccc(Br)cc12 [Compound 174AY, 5-bromo-3-(o-tolylthio)-1H-indole]",MBC,[1],2 µg/mL
same,MIC,[1]; Bacillus subtilis,1 µg/mL
same,MBC,[5],4 µg/mL
same,MIC,[5],2 µg/mL
same,MIC,[3],1 µg/mL
same,MIC50,[6],3.83 µg/mL
same,MIC,[6]; [8],4 µg/mL
same,MIC,[6]; [9],2 µg/mL
same,MIC,[6]; [10],4 µg/mL
same,MIC,[6]; [11],3.67 µg/mL
same,MIC,[6]; [12],2 µg/mL
same,MIC,[6]; [13],3.33 µg/mL
same,MIC,[6]; [14],3.67 µg/mL
same,MIC,[6]; [15],4 µg/mL
same,MIC,[6]; [16],4 µg/mL
same,MIC,[6]; [17],4 µg/mL
same,MIC,[6]; [18],4 µg/mL
same,MIC,[6]; [19],2 µg/mL
"Clc1cc(Cl)c(Sc2c[nH]c3ccc(Br)cc23)c(Cl)c1 [Compound 174AG, 5-bromo-3-((2,4,6-trichlorophenyl)thio)-1H-indole]",MBC,[1],> 50 µg/mL
same,MIC,[1]; Bacillus subtilis,4 µg/mL
same,MBC,[5],> 50 µg/mL
same,MIC,[5],4 µg/mL
same,MIC,[4],> 50 µg/mL
same,MFC,[2],> 50 µg/mL
same,MIC,[2],6.25 µg/mL
"Oc1ccc2[nH]cc(Sc3ccccc3Br)c2c1 [Compound 174AR, 3-((2-bromophenyl)thio)-1H-indol-5-ol]",MIC,[1]; Bacillus subtilis,8 µg/mL
same,MIC,[2],50 µg/mL
same,MIC,[3],4 µg/mL
"Clc1cc2[nH]cc(Sc3ccc(Br)cc3)c2cc1Br [Compound 174AF, 5-bromo-3-((4-bromophenyl)thio)-6-chloro-1H-indole]",MBC,[1],50 µg/mL
same,MIC,[1]; Bacillus subtilis,4 µg/mL
same,MBC,[5],4 µg/mL
same,MIC,[5],2 µg/mL
same,MIC,[4],> 50 µg/mL
same,MIC,[2],> 50 µg/mL
same,MIC,[3],4 µg/mL
